Data on one molecule can be found in US10154991B2, “Anesthetic compounds and related methods of use” (priority 2012, dated 2018).

Data set [1] has as its system adrenal cortisol production. The procedure: Dexamethasone (0.01 mg/kg) was administered two hours before the first administration of ACTH and re-administered every 2 hours to maintain suppression. Dexamethasone pretreatment suppresses the hypothalamo-hypophyseal axis to prevent endogenous ACTH release and subsequent adrenocortical steroid secretion. […] Synthetic ACTH (Synacthen, 250 μg) was then administered at times after test substance administration to evaluate the effects of the test substance on the release of the adrenal steroid, cortisol.
All study methods described for Study 1 were repeated, except the ACTH administration at the end of infusion was omitted.

Data set [2] concerns Sprague-Dawley rats. Kind of data set: In vivo sedative/hypnotic testing, IV bolus, rats. Particulars: rats. Set-up: species or system rat. The procedure:
(§1) Animals were housed in a dedicated room at the vivarium of VivoPath Inc., located at Redstone Center, 55 Union Street, Worcester, Mass. Housing and care was as specified in the USDA Animal Welfare Act (9 CFR, Parts 1, 2, and 3) and as described in the Guide for the Care and Use of Laboratory Animals from the National Research Council. Environmental conditions of housing rooms are set at the following ranges: temperature: 70±7° F. (22±4° C.), humidity: 50±20%, light cycle: 12-hour light/12-hour dark cycle—lights on at 7 am and off at 7 pm., air changes: ten or more air changes per hour with 100% fresh air. The animals' body weights were measured prior to the first dose on each experimental day.
Adult male Sprague-Dawley rats (225-300 g) were purchased from Harlan (South Easton, Mass.).
(§2) Drugs were prepared in either dimethylsulfoxide/saline or saline vehicle or hydroxypropyl-β-cyclodextrin (20% in water, pH 7.0) solution and were administered as an intravenous bolus injection. Animals received 1-4 doses of drug(s) during an experimental day, either ascending doses or different drugs. Doses were administered at intervals equal to the longer of 1 h or 10-times the duration of apparent sedative/hypnotic effects from the previous dose. The sedative/hypnotic properties of the drugs were evaluated by observation of the rats, ranging from mild excitation, mild sedation apparent due to reduced activity, and moderate sedation to hypnosis reflected by loss of righting reflex (LORR, the ability to place rear and hind legs under the body, as well as attenuation/loss of nociceptive reflexes).

The test system of data set [3] is beagle dogs. The note with it: dogs. The procedure: A pilot study was conducted in dogs to assess anesthesia induced by cyclopropyl-MOC-metomidate continuous infusion without a bolus induction dosing. Two dogs received cyclopropyl-MOC-metomidate as a 1 mg/kg/min IV infusion without prior bolus administration.
Anesthesia induction was determined using the methods described above.
Etomidate was administered to dogs at IV bolus doses ranging from 0.25 to 2 mg/kg. Anesthesia in the dogs was measured as described above. […] The bolus dose of 2 mg/kg was adopted to induce anesthesia prior to subsequent continuous infusions.
Propofol was administered to dogs as an IV bolus dose of 5 mg/kg to induce anesthesia followed by a continuous infusion at 0.4 mg/kg/min.

For data set [4] the following is noted: From Pejo et al.; cited from earlier work.
In data set [5] the test system is rats. Kind of data set: loss of righting reflexes (LORR) assay after IV bolus.
The subject of data set [6] is ICR mice. Kind of data set: In vivo sedative/hypnotic testing, IV bolus, mice. More on the design: species or system mouse. The note with it: mice. The procedure:
as §1
Adult ICR mice (20-30 g) were purchased from Harlan (South Easton, Mass.). Drugs were administered as intravenous bolus injection in a tail vein.
as §2

On to `CCOC(=O)c1cncn1[C@H](C)c1ccccc1` [Etomidate, (R)-ethyl-1-(1-phenylethyl)-1H-imidazole-5-carboxylate, reference compound], for which the “ACTH-induced plasma cortisol response” value in data set [1] (Study 1, dogs, after 120-minute infusion) is recorded as “markedly inhibited”. For the same molecule, the adrenal suppression result in data set [1] (dogs, compared with the other test substances) was “more profound and durable adrenal suppression”. Moreover, the “slope of duration of LORR vs logarithm of dose” value was roughly 24 in data set [2] and “approximately 10” in data set [6]. Besides, the “involuntary movements during recovery” value in data set [3] is on record as “extended periods of involuntary movements”. Also, the “bolus dose range inducing anesthesia” value in data set [3] (IV bolus 0.25 to 2 mg/kg tested) was in the range of 0.5 to 2 mg/kg. Moreover, the “minimum initial effective continuous infusion dose rate” value in data set [3] (after 2 mg/kg bolus) amounted to 0.15 mg/kg/min. In addition, the “respiratory effect during infusion” value in data set [3] (after approximately 30 minutes at 0.15 mg/kg/min) was “decrease in respiratory rate”. Also, the “context dependence of recovery from anesthesia” value in data set [3] (bolus vs 30- or 120-minute infusion) is reported as “marked context-dependency”. In data set [4], the “Octanol/Water Partition Coefficient ± SD” value is given as 800 ± 180. The ED50 in data set [5] (Rattus norvegicus, iv, read-out: ED50 ± SD) was 0.53 ± 0.17 mg/kg. Moreover, in data set [5] (duration of LORR vs log dose, rats), the “Slope of Duration vs. Log Dose ± SD” value is reported as 24±4.7 min/(log mg/kg).
